Results: patent US11905282B1, “1-cyclopropyl-7-(4-((5-(2,4-dichlorobenzylideneamino)-2-thioxo-1,3,4-thiadiazol-3(2H)-yl)methyl)piperazin-1-yl)-6-fluoro-4-oxo-1,4-dihydroquinoline-3-carboxylic acid as an anti-inflammatory compound” (KING FAISAL UNIVERSITY, priority 2023, dated 2024)
Like-named read-outs stand apart in the source and are kept apart here.

Target: Bovine Serum Albumin (Bos taurus, UniProt P02769)
Assay: Bovine Serum Albumin Assay (BSA), inhibition of heat-induced protein denaturation (in vitro anti-inflammatory activity)
Type: biochemical
Procedure: Bovine Serum Albumin Assay (BSA) In vitro-inflammatory activities of the tested samples were determined using a modified method of the BSA assay reported by Williams et al. BSA solution (0.4%, w/v) was prepared in Tris Buffered Saline. The pH was adjusted to 6.4 with glacial acetic acid. Different dilutions of 20, 40, 60, 80, and 100 μg/mL of 1-cyclopropyl-6-fluoro-4-oxo-7-(4-((5-oxo-2-phenyl-4-(quinolin-2-ylmethylene)-4,5-dihydro-1H-imidazol-1-yl)methyl)piperazin-1-yl)-1,4-dihydroquinoline-3-carboxylic acid in the stock solutions were added to test tubes containing 1 mL of 0.4%, w/v BSA buffer solution. Both negative (solvent) and positive (aspirin) controls were assayed in a similar manner. The solutions were then heated in a water bath at 72° C. for 10 minutes and cooled for 20 minutes under laboratory conditions. The turbidity of the solutions (level of protein precipitation) was measured at 660 nm in Spectrophotometer (V-770 UV-Visible/NIR Spectrophotometer). The percentage inhibition of precipitation (protein denaturation) was determined relative to the negative control using the following equation: [formula] [formula]

[1] = read-out: percentage inhibition of precipitation (protein denaturation)

Chain of Bovine Serum Albumin (P02769 25-607): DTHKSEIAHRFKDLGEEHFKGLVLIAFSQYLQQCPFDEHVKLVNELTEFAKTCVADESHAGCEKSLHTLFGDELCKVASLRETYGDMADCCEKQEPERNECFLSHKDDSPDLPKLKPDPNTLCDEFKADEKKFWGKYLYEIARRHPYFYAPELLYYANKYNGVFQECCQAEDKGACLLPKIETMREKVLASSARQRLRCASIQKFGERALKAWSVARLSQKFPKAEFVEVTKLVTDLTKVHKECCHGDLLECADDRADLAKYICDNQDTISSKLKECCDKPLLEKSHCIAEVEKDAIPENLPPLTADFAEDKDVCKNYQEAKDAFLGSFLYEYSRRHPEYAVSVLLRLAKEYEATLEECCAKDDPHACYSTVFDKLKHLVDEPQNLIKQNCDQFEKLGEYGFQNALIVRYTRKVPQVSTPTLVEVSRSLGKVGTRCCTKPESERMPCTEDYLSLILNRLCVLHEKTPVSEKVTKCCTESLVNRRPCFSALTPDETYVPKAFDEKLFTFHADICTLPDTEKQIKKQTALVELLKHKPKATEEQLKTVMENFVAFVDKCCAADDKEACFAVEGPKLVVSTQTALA

Compound | inhibition at 100 µg/mL (concentration 100 μg/ml, 72° C. 10 minutes, turbidity at 660 nm, read-out: percentage inhibition of precipitation (protein denaturation)) [%] | in vitro anti-inflammatory effect (BSA assay, result in words) | inhibition at 20 µg/mL [1] [%] | inhibition at 40 µg/mL [1] [%] | inhibition at 60 µg/mL [1] [%] | inhibition at 80 µg/mL [1] [%] | inhibition at 100 µg/mL [1] [%]
CC(=O)Oc1ccccc1C(=O)O [P.C, aspirin, reference compound] | 90.7 |  |  |  |  |  | 
O=C(O)c1cn(C2CC2)c2cc(N3CCN(Cn4nc(/N=C/c5ccc(Cl)cc5Cl)sc4=S)CC3)c(F)cc2c1=O [Present compound, 1-cyclopropyl-7-(4-((5-(2,4-dichlorobenzylideneamino)-2-thioxo-1,3,4-thiadiazol-3(2H)-yl)methyl)piperazin-1-yl)-6-fluoro-4-oxo-1,4-dihydroquinoline-3-carboxylic acid] |  | considerable anti-inflammatory effect | 68.2 | 75.7 | 79.1 | 83.8 | 87.6
